Measured values taken from article PMC8311653, “Design, Synthesis, In Vitro and In Vivo Characterization of Selective NKCC1 Inhibitors for the Treatment of Core Symptoms in Down Syndrome” (Journal of Medicinal Chemistry, 2021).
Like-named read-outs stand apart in the source and are kept apart here.

Legend:
[1] = In vitro mouse plasma stability; format: in vitro ADME; settings: mouse plasma at 37 °C; incubated at 5 μM (final DMSO 0.1%); read-out: t1/2 plasma
[2] = target: T1, NKCC2 (Homo sapiens, UniProt Q13621); parameters: method as in PMID 32818158; settings: 10 μM; cited from earlier work
T1 construct: host or cells: HEK293
T1 sequence (Q13621 1-1099): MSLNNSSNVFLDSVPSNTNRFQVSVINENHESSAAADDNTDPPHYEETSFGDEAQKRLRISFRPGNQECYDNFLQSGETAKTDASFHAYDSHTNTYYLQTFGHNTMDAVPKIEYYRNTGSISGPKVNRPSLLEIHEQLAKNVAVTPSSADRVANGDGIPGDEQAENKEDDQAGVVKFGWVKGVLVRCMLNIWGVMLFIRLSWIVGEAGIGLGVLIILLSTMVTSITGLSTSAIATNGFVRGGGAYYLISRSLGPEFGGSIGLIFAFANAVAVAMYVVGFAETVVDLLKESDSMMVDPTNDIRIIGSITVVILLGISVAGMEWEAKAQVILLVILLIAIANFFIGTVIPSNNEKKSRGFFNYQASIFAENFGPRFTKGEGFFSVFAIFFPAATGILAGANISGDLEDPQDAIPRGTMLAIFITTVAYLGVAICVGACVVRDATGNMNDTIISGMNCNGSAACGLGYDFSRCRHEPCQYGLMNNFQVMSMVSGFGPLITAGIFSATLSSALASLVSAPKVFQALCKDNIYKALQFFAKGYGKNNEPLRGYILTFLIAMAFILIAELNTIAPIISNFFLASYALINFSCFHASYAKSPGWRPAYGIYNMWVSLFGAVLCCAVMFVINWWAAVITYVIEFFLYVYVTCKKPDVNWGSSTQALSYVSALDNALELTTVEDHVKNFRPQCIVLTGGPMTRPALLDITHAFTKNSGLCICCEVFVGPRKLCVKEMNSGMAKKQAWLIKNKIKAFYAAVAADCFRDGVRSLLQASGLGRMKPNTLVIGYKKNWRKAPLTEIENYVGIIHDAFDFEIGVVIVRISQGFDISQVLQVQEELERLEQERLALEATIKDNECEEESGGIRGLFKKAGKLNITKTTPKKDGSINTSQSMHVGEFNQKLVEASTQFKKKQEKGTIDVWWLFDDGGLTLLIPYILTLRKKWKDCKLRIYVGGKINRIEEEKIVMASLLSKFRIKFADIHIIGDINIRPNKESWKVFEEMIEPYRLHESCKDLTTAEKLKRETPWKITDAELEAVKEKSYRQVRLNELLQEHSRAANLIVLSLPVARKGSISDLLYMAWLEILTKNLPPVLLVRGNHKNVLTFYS

[3] = target: T1, NKCC2; experiment: Cl- influx assay in NKCC2-transfected HEK293 cells; format: cell-based; settings: 10 μM
Protocol: HEK293 cells were cultured in Dulbecco’s modified Eagle’s medium (DMEM) supplemented with 10% fetal bovine serum, 1% L-glutamine, 100 U/mL penicillin, and 100 μg/mL streptomycin and maintained at 37 °C in a 5% CO2 humidified atmosphere. […] To assess KCC2 activity (Tl influx assay), cells were transfected with 8 μg of KCC2[54] subcloned in the PRK5 plasmid or mock control (empty vector) and 16 μL of Lipofectamin 2000. After 4 h, the cells were collected and plated in 96-well black-walled, clear-bottomed plates at a density of 2.5 × 10^4. After 48 h, cells were used for the Cl^– or Tl influx assays. All reagents were purchased from Life Technologies, unless otherwise specified.
After 30 min of incubation, plates were loaded into a Victor 3V (PerkinElmer) multiplate reader equipped with an automatic liquid injector system, and fluorescence of Cl^–-sensitive mbYFPQS was recorded with excitation at 485 nm and emission at 535 nm. For each well, fluorescence was first recorded for 20 s of the baseline and for 60 s after delivery of a NaCl concentrated solution (74 mM final concentration in the assay well). Fluorescence of Cl^–-sensitive mbYFPQS is inversely correlated to the intracellular Cl^– concentration;[53] therefore, chloride influx into the cells determined a decrease in mbYFPQS fluorescence. […]

[4] = tested on: Ts65Dn mice; experiment: T-maze test (short-term working memory); format: in vivo, mouse; settings: ip 0.6 mg kg-1 daily, chronic (7-21 days)
Protocol: (§1) A veterinarian was employed to maintain the health and comfort of the animals. Mice were housed in filtered cages in a temperature-controlled room with a 12:12 h dark/light cycle and with ad libitum access to water and food. All efforts were made to minimize animal suffering and use the lowest possible number of animals required to produce statistical relevant results, according to the “3Rs concept”. In this study, we used Ts65Dn mice maintained in their original genetic background[57] by crossing (more than 40 times) Ts65Dn female to C57BL/6JEi × C3SnHeSnJ (B6EiC3) F1 males (Jackson Laboratories). Ts65Dn mice were genotyped by PCR as previously described.[58] Only males were used for behavioral experiments. Ts65Dn and controls were randomly assigned to vehicle groups (2% DMSO in saline), bumetanide (Sigma, 0.6 mg kg^–1 body weight), or 40 (0.6 mg kg^–1 body weight) and treated daily for ∼21 days by intraperitoneal injection (i.p.). On the day of behavioral testing, injection was performed 1 h before the task began.
(§2) Ts65Dn male mice (8–16 weeks old) were tested after 1 week of treatment with vehicle or 40 (0.6 mg kg^–1 i.p.). The battery of tests was run over a total period of ∼14 days (four behavioral tests with the following order Open Field, NOR, T-maze, and CFC). […] The tasks were video-recorded and then analyzed manually by a blind operator.

[5] = tested on: Ts65Dn mice; experiment: Contextual fear-conditioning (CFC) test; format: in vivo, mouse; settings: ip 0.6 mg kg-1 daily, chronic, re-exposure 24 h after conditioning
Protocol: as §1, §2

[6] = General health and body weight during chronic treatment; format: in vivo, mouse; settings: 3 weeks of daily treatment, ip 0.6 mg kg-1; WT and Ts65Dn mice
Protocol: as §1

SMILES	half-life at 5 μM [1] [h]	inhibition of NKCC2 in the Cl- influx assay [2]	inhibition of NKCC2 in the Cl- influx assay [3]	short-term working memory in the T-maze test (number of correct choices) [4]	associative memory in the CFC test (freezing response) [5]	animal body weight [6]	general health (daily hands-on examination) [6]
CN(C)S(=O)(=O)c1cc(C(=O)O)ccc1NCCCCCCCC(F)(F)F [Compound 1, 3-(-N,N-Dimethylsulfamoyl)-4-(8,8,8-trifluorooctylamino)benzoic Acid]	> 2	did not show any significant inhibition	–	–	–	–	–
CN(C)S(=O)(=O)c1cc(C(=O)O)c(O)cc1NCCCCCCCC(F)(F)F [Compound 40, 5-(N,N-Dimethylsulfamoyl)-2-hydroxy-4-((8,8,8-trifluorooctyl)amino)benzoic Acid]	> 2	–	did not show any significant inhibition	fully restored	completely restored	did not affect the animal body weight measures	did not affect the general health
